Assay results: patent US7452887B2, “Quinoline- and isoquinoline-based compounds exhibiting ATP-utilizing enzyme inhibitory activity, and compositions, and uses thereof” (Amphora Discovery Corporation, priority 2004, dated 2008)

Assays:
Assay in all cases: HTS ATP-utilizing enzyme assay, off-chip mobility-shift (Caliper HTS 250)
Format in all cases: biochemical
Conditions in all cases: test compound 10 μM, kinase listed = active (greater than six-sigma from the mean activity of inactive compounds)
MAPKAPK2 = MAPKAPK2 (Homo sapiens, UniProt P49137)
How it was run: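 Phosphorylation of a peptide substrate was quantified by Caliper mobility-shift separation of substrate and product after 2.5 h at 20-22 °C, with compounds tested at 10 μM. Inhibition was normalized to EDTA-quenched (100%) and DMSO (0%) controls; six-sigma thresholds flagged actives.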

C-TAK1 = C-TAK1 (Homo sapiens, UniProt P27448)
How it was run: (§1)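 Inhibition is reported from a single 10 μM concentration. Kinase phosphorylates a peptide substrate over 2.5 hrs at 20° C. to 22° C. before EDTA termination. Potential hits are those beyond six-sigma statistical limits.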

CHEK1 = target: T1, CHEK1 (Homo sapiens, UniProt O14757)
T1 sequence (O14757 1-476): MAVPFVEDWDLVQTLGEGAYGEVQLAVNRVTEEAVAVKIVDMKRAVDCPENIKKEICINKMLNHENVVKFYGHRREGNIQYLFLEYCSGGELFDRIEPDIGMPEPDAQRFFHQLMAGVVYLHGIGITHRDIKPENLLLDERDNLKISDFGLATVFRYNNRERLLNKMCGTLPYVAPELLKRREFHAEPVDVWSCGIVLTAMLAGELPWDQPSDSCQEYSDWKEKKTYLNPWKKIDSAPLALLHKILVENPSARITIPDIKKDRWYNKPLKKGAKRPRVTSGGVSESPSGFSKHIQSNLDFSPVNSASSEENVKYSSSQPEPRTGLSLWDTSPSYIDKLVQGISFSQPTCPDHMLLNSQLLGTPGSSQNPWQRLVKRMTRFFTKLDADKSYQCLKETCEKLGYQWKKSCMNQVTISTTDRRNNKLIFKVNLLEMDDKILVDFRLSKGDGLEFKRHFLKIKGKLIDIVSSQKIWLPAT
How it was run: as §1

BMX = target: T2, BMX (Homo sapiens, UniProt P51813)
T2 sequence (P51813 1-675): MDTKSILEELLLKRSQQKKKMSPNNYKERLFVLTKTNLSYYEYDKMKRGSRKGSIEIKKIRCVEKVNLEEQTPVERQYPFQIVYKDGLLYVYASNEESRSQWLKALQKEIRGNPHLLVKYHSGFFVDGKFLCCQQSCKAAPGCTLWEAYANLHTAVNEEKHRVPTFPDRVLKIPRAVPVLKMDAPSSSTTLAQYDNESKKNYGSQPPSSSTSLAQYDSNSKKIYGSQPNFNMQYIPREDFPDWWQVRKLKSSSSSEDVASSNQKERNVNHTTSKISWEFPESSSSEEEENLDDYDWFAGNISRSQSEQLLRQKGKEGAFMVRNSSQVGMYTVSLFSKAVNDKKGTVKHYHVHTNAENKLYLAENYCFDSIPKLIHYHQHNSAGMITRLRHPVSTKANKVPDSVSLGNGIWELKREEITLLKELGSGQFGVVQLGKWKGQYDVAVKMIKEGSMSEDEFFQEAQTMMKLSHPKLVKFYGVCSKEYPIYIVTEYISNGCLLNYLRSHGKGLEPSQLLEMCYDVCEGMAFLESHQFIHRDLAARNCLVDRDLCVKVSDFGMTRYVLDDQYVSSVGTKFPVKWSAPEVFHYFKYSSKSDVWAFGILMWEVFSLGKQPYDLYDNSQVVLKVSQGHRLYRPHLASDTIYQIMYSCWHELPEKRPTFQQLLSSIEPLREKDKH
How it was run: as §1

FLT-3 = target: T3, FLT-3 (Homo sapiens, UniProt P36888)
T3 sequence (P36888 27-993): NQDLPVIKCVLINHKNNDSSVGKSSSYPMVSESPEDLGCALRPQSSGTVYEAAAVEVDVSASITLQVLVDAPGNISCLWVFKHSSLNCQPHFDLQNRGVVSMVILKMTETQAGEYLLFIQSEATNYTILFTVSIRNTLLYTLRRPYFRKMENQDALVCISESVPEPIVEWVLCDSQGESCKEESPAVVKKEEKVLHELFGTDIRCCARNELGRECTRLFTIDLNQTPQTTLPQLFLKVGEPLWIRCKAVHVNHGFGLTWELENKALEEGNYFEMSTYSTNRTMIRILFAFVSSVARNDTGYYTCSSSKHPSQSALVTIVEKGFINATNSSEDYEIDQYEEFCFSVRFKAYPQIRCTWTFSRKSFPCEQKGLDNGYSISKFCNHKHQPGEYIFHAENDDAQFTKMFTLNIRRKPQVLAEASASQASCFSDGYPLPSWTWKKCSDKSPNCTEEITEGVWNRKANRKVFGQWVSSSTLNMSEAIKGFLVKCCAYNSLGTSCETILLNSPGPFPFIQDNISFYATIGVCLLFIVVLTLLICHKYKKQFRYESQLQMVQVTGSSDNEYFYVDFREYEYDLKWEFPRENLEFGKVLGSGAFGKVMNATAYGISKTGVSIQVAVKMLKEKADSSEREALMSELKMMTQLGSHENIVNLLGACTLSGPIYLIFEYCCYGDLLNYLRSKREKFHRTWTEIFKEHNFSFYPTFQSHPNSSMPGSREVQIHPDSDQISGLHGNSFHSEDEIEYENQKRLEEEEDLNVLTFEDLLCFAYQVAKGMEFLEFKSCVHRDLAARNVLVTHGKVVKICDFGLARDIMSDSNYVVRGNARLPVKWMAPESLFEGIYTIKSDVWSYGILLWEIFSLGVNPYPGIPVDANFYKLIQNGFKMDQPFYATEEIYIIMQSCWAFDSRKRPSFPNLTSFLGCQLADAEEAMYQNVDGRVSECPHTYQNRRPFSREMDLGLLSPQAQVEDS
How it was run: as §1

KIT = KIT (Homo sapiens, UniProt P10721)
How it was run: as §1

AKT3 = AKT3 (Homo sapiens, UniProt Q9Y243)
How it was run: as §1

NEK2 = target: T4, NEK2 (Homo sapiens, UniProt P51955)
T4 sequence (P51955 1-445): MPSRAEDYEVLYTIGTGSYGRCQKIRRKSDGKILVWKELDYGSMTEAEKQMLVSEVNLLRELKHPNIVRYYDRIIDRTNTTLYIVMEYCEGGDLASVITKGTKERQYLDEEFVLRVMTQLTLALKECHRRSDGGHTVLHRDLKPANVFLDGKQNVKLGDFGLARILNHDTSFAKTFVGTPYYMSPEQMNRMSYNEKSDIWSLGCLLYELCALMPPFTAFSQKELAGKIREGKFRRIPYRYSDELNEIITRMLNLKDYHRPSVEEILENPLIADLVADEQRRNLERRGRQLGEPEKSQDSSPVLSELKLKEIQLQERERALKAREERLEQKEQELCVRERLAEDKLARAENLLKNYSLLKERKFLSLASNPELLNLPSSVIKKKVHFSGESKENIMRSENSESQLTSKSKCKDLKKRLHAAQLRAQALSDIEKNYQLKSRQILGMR
How it was run: as §1

PRAK = target: T5, PRAK (Homo sapiens, UniProt Q8IW41)
T5 sequence (Q8IW41 1-473): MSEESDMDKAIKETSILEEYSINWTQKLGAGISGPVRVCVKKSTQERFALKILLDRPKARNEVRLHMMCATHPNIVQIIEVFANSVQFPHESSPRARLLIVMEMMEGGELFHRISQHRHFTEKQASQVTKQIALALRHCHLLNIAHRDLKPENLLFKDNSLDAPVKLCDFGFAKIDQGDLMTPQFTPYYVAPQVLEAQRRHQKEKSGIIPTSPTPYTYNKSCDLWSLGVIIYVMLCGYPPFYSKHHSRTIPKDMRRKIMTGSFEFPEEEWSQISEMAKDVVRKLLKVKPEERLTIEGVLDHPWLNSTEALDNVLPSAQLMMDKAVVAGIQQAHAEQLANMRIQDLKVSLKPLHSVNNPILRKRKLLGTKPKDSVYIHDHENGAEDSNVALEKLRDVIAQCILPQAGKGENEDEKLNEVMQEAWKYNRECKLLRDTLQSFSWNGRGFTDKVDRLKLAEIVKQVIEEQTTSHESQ
How it was run: as §1

CHEK2 = CHEK2 (Homo sapiens, UniProt O96017)
How it was run: as §1

GSK3-α = GSK3-α (Homo sapiens, UniProt P49840)
How it was run: as §1

Sequence of AKT3 (Q9Y243 whole entry): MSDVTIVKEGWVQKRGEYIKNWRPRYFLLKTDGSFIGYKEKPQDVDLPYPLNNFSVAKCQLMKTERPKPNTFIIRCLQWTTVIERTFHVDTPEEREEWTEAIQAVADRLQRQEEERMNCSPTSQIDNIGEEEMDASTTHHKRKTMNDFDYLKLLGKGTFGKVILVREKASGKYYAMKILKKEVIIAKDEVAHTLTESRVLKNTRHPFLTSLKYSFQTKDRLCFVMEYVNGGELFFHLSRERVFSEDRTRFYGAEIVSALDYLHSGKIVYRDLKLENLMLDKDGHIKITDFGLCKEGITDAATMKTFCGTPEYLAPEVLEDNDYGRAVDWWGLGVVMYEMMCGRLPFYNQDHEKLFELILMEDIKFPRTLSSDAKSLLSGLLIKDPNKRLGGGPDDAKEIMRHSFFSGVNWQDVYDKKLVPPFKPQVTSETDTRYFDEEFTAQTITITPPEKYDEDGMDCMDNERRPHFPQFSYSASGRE
Sequence of KIT (P10721 26-976): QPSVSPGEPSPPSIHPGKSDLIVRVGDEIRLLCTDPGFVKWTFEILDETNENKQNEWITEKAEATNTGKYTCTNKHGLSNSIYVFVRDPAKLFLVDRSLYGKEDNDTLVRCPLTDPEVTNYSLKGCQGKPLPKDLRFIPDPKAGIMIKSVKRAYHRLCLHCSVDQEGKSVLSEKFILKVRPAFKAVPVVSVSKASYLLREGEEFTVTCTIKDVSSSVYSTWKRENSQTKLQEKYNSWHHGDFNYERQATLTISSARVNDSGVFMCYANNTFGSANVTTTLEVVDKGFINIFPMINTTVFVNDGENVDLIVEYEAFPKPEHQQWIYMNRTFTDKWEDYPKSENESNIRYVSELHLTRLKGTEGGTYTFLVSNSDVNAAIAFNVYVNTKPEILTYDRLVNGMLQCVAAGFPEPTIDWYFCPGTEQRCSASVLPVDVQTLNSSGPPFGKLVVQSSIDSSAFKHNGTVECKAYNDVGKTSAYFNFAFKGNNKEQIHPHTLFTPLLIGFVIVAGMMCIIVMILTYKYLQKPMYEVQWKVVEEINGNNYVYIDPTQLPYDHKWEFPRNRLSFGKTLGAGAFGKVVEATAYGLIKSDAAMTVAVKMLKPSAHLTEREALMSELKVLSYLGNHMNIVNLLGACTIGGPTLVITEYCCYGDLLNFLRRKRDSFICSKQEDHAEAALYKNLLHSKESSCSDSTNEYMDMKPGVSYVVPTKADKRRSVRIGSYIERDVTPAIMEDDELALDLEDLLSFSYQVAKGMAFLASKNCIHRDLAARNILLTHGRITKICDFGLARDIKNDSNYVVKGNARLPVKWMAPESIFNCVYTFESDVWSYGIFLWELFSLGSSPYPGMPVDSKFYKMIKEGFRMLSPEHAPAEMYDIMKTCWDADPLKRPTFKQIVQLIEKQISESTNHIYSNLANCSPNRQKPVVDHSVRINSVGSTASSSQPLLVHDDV
Sequence of C-TAK1 (P27448 whole entry): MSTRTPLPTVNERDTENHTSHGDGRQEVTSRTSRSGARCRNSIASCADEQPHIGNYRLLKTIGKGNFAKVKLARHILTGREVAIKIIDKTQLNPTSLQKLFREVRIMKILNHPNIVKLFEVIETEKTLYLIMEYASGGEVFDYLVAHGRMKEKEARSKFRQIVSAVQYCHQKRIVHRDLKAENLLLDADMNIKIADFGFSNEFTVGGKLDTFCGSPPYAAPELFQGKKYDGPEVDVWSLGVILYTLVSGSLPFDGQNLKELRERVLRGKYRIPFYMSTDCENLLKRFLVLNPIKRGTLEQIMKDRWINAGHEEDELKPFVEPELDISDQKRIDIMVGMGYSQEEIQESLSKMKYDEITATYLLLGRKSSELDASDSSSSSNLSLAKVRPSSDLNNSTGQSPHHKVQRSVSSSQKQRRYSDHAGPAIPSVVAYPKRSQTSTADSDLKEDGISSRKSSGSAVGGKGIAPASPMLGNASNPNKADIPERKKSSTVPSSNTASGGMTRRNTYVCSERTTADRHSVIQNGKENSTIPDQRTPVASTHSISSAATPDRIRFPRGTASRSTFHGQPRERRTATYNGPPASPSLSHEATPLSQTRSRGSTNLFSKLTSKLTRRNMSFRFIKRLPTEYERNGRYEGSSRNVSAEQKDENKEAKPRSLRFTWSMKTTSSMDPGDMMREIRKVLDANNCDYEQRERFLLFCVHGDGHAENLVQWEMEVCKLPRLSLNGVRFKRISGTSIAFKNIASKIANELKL
Sequence of MAPKAPK2 (P49137 whole entry): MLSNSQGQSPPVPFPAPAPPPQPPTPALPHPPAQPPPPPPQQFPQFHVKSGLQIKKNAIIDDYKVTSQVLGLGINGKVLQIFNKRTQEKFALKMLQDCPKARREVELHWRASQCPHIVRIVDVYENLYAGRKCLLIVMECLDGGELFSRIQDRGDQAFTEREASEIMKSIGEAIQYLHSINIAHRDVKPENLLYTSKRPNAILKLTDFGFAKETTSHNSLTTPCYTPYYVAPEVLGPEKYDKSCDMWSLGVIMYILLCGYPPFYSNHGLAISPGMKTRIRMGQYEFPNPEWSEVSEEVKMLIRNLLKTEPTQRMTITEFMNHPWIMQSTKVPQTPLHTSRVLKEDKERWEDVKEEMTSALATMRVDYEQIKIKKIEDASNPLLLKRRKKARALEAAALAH
Sequence of GSK3-α (P49840 whole entry): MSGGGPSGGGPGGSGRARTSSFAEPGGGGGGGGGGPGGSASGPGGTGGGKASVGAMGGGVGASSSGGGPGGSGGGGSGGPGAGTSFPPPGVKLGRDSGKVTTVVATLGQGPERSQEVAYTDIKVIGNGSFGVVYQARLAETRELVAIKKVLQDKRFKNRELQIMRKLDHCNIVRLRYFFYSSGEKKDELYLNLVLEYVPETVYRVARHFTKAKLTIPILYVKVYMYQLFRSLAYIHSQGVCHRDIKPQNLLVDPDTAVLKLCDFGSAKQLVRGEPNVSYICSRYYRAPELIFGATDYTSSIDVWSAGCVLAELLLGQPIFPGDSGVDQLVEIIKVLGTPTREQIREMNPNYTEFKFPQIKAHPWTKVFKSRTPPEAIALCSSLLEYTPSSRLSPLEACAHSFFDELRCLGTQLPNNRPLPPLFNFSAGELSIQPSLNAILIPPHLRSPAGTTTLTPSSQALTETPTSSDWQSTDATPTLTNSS
Sequence of CHEK2 (O96017 whole entry): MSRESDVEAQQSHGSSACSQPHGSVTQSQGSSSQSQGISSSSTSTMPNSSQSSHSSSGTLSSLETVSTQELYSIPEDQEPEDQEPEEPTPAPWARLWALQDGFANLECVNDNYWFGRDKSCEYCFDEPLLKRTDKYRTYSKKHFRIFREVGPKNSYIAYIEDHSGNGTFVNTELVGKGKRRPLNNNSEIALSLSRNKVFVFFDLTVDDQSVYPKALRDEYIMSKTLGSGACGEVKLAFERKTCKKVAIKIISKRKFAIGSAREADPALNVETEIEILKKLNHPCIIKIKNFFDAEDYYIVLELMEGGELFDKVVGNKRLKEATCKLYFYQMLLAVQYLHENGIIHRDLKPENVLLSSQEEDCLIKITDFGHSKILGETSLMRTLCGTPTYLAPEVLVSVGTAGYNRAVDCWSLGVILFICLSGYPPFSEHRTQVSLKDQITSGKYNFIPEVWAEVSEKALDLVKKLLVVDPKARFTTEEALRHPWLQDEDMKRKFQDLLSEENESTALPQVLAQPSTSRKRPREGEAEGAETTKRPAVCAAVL

SMILES | Activity (MAPKAPK2) | Activity (BMX) | Activity (PRAK) | other results
CN(C)CCN1CCN(c2ccc(Nc3ccnc4ccc(-c5ccc(C#N)cc5)cc34)cc2)CC1 [4-(4-(4-(4-(2-(dimethylamino)ethyl)piperazin-1-yl)phenylamino)quinolin-6-yl)benzonitrile] | MAPKAPK2 | – | – | Activity (C-TAK1): C-TAK1; Activity (CHEK1): CHEK1
CCC(C)N1CCN(c2ccc(Nc3ccnc4ccc(-c5ccc(C#N)cc5)cc34)cc2)CC1 (stereo not drawn) [4-(4-(4-(4-sec-butylpiperazin-1-yl)phenylamino)quinolin-6-yl)benzonitrile] | MAPKAPK2 | BMX | – | –
CN1CCN(c2ccc(N(C)c3ccnc4ccc(-c5ccc(C#N)cc5)cc34)cc2)CC1 [4-(4-(methyl(4-(4-methylpiperazin-1-yl)phenyl)amino)quinolin-6-yl)benzonitrile] | MAPKAPK2 | BMX | – | Activity (FLT-3): FLT-3; Activity (KIT): KIT
Cc1ccc(C)c(-c2ccc3nccc(Nc4ccc(N5CCN(C)CC5)cc4)c3c2)c1 [6-(2,5-dimethylphenyl)-N-(4-(4-methylpiperazin-1-yl)phenyl)quinolin-4-amine] | MAPKAPK2 | – | PRAK | Activity (AKT3): AKT3; Activity (NEK2): NEK2
CN1CCN(c2ccc(Nc3ccnc4ccc(-c5ccc(C(C)(C)C)cc5)cc34)cc2)CC1 [6-(4-tert-butylphenyl)-N-(4-(4-methylpiperazin-1-yl)phenyl)quinolin-4-amine] | MAPKAPK2 | – | PRAK | Activity (C-TAK1): C-TAK1; Activity (CHEK1): CHEK1; Activity (NEK2): NEK2
CN1CCN(c2ccc(Nc3ccnc4ccc(-c5cccc(CO)c5)cc34)cc2)CC1 [(3-(4-(4-(4-methylpiperazin-1-yl)phenylamino)quinolin-6-yl)phenyl)methanol] | MAPKAPK2 | – | PRAK | Activity (CHEK2): CHEK2; Activity (FLT-3): FLT3
CC(=O)Nc1cccc(-c2ccc3nccc(Nc4ccc(N5CCN(C)CC5)cc4)c3c2)c1 [N-(3-(4-(4-(4-methylpiperazin-1-yl)phenylamino)quinolin-6-yl)phenyl)acetamide] | MAPKAPK2 | – | PRAK | Activity (GSK3-α): GSK3-α
COc1ccc(-c2ccc3nccc(Nc4ccc(N5CCN(C(C)C)CC5)cc4)c3c2)cc1 [N-(4-(4-isopropylpiperazin-1-yl)phenyl)-6-(4-methoxyphenyl)quinolin-4-amine] | MAPKAPK2 | BMX | – | –
CN1CCN(c2ccc(Nc3ccnc4ccc(-c5cccc6cccnc56)cc34)cc2)CC1 [N-(4-(4-methylpiperazin-1-yl)phenyl)-6,8′-biquinolin-4-amine] | MAPKAPK2 | BMX | PRAK | Activity (KIT): KIT
CN1CCN(c2ccc(Nc3ccnc4ccc(-c5cc(F)c(F)c(F)c5)cc34)cc2)CC1 [N-(4-(4-methylpiperazin-1-yl)phenyl)-6-(3,4,5-trifluorophenyl)quinolin-4-amine] | MAPKAPK2 | – | PRAK | Activity (CHEK1): CHEK1; Activity (NEK2): NEK2
CN1CCN(c2ccc(Nc3ccnc4ccc(-c5cccc([N+](=O)[O-])c5)cc34)cc2)CC1 [N-(4-(4-methylpiperazin-1-yl)phenyl)-6-(3-nitrophenyl)quinolin-4-amine] | – | – | PRAK | Activity (AKT3): AKT3
CN1CCN(c2ccc(Nc3ccnc4ccc(-c5ccc(C(F)(F)F)cc5)cc34)cc2)CC1 [N-(4-(4-methylpiperazin-1-yl)phenyl)-6-(4-(trifluoromethyl)phenyl)quinolin-4-amine] | – | – | PRAK | Activity (C-TAK1): C-TAK1; Activity (CHEK1): CHEK1; Activity (NEK2): NEK2
CN1CCN(c2ccc(Nc3ccnc4ccc(-c5cccnc5)cc34)cc2)CC1 [N-(4-(4-methylpiperazin-1-yl)phenyl)-6-(pyridin-3-yl)quinolin-4-amine] | MAPKAPK2 | – | PRAK | Activity (AKT3): AKT3
CN1CCN(c2ccc(N(C)c3ccnc4ccc(-c5ccccc5)cc34)cc2)CC1 [N-methyl-N-(4-(4-methylpiperazin-1-yl)phenyl)-6-phenylquinolin-4-amine] | MAPKAPK2 | BMX | – | Activity (FLT-3): FLT-3; Activity (KIT): KIT
